This assay has as its target human HPK1 (MAP4K1) (Homo sapiens (Human), UniProt Q92918). Kind of assay: HPK1 IC50 Assay (TR-FRET peptide phosphorylation). In kind it is biochemical. The following applies: 0.15 nM HPK1, 10 μM ATP, 1 μM STK S1 peptide substrate; geometric mean. Put shortly:
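Readout: TR-FRET (665 nm/620 nm) after EDTA stop, detecting STK S1 peptide (1 μM) phosphorylation by 0.15 nM HPK1 kinase domain, ATP-pre-activated, at 10 μM ATP over 3 h, 25° C, pH 7.0. IC50s from four-parameter variable-slope fits, normalized to staurosporine and DMSO, averaged geometrically.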
Chain of human HPK1 (MAP4K1) (Q92918 17-274): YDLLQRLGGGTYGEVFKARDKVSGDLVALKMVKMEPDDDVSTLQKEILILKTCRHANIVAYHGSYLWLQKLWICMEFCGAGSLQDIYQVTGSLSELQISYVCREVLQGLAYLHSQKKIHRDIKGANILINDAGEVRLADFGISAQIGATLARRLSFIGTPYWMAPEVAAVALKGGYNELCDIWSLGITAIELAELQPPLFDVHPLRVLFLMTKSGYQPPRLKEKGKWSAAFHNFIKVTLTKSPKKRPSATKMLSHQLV
The compound `CC(C)NC(=O)c1cc(Nc2nc(-c3cnc4c(c3)N([C@H]3C[C@@](C)(N5CCCCC5)C3)C(=O)C4(C)C)cc3ncn(C(C)C)c23)c(F)c(F)c1Cl` [Example 267, 2-chloro-5-((6-(3,3-dimethyl-1-((1s,3s)-3-methyl-3-(piperidin-1-yl)cyclobutyl)-2-oxo-2,3-dihydro-1H-pyrrolo[3,2-b]pyridin-6-yl)-3-isopropyl-3H-imidazo[4,5-c]pyridin-4-yl)amino)-3,4-difluoro-N-isopropylbenzamide] showed an IC50 of 0.1 nM.
`Cc1c(C(=O)NCC(F)F)cc(Nc2nc(-c3ccc4c(c3)N([C@H]3C[C@@](C)(N5CCCCC5)C3)C(=O)C4(C)C)cc3ncn(C(C)C)c23)c(F)c1F` [Example 268, N-(2,2-difluoroethyl)-5-((6-(3,3-dimethyl-1-((1s,3s)-3-methyl-3-(piperidin-1-yl)cyclobutyl)-2-oxoindolin-6-yl)-3-isopropyl-3H-imidazo[4,5-c]pyridin-4-yl)amino)-3,4-difluoro-2-methylbenzamide] had an IC50 of 0.03 nM.
With `Cc1c(C(=O)NCC(F)F)cc(Nc2nc(-c3cc4c(nc3F)C(C)(C)C(=O)N4[C@H]3C[C@@](C)(N4CCCCC4)C3)cc3ncn(C(C)C)c23)c(F)c1F` [Example 269, N-(2,2-difluoroethyl)-3,4-difluoro-5-((6-(5-fluoro-3,3-dimethyl-1-((1s,3s)-3-methyl-3-(piperidin-1-yl)cyclobutyl)-2-oxo-2,3-dihydro-1H-pyrrolo[3,2-b]pyridin-6-yl)-3-isopropyl-3H-imidazo[4,5-c]pyridin-4-yl)amino)-2-methylbenzamide] the figure was 0.07 nM; with `CCNC(=O)c1cc(Nc2nc(-c3cc4c(nc3F)C(C)(C)C(=O)N4[C@H]3C[C@@](C)(N4CCCC5(CC5)C4)C3)cc3ncn(C(C)C)c23)c(F)c(F)c1Cl` [Example 270, 2-chloro-N-ethyl-3,4-difluoro-5-((6-(5-fluoro-3,3-dimethyl-1-((1s,3s)-3-methyl-3-(5-azaspiro[2.5]octan-5-yl)cyclobutyl)-2-oxo-2,3-dihydro-1H-pyrrolo[3,2-b]pyridin-6-yl)-3-isopropyl-3H-imidazo[4,5-c]pyridin-4-yl)amino)benzamide], 0.1 nM.
In turn, `CCNC(=O)c1cc(Nc2nc(-c3cc4c(nc3F)C(C)(C)C(=O)N4[C@H]3C[C@@](C)(N4CCCCC4)C3)cc3ncn(C(C)C)c23)c(F)c(F)c1C` [Example 271, N-ethyl-3,4-difluoro-5-((6-(5-fluoro-3,3-dimethyl-1-((1s,3s)-3-methyl-3-(piperidin-1-yl)cyclobutyl)-2-oxo-2,3-dihydro-1H-pyrrolo[3,2-b]pyridin-6-yl)-3-isopropyl-3H-imidazo[4,5-c]pyridin-4-yl)amino)-2-methylbenzamide] yielded an IC50 of 0.06 nM.
For the compound `CC(C)n1cnc2cc(-c3cc4c(nc3F)C(C)(C)C(=O)N4[C@H]3C[C@@](C)(N4CCCCC4)C3)nc(Nc3cc(C(=O)NCC(F)F)c(Cl)c(F)c3F)c21` [Example 272, 2-chloro-N-(2,2-difluoroethyl)-3,4-difluoro-5-((6-(5-fluoro-3,3-dimethyl-1-((1s,3s)-3-methyl-3-(piperidin-1-yl)cyclobutyl)-2-oxo-2,3-dihydro-1H-pyrrolo[3,2-b]pyridin-6-yl)-3-isopropyl-3H-imidazo[4,5-c]pyridin-4-yl)amino)benzamide], 0.09 nM corresponded to half-maximal inhibition (IC50).
Under `CCNC(=O)c1cc(Nc2nc(-c3cc4c(nc3F)C(C)(C)C(=O)N4[C@H]3C[C@@](C)(N4CCCCC4)C3)cc3ncn(C(C)C)c23)c(F)c(F)c1Cl` [Example 273, 2-chloro-N-ethyl-3,4-difluoro-5-((6-(5-fluoro-3,3-dimethyl-1-((1s,3s)-3-methyl-3-(piperidin-1-yl)cyclobutyl)-2-oxo-2,3-dihydro-1H-pyrrolo[3,2-b]pyridin-6-yl)-3-isopropyl-3H-imidazo[4,5-c]pyridin-4-yl)amino)benzamide] stands 0.07 nM; under `CC(C)n1cnc2cc(-c3cnc4c(c3)N([C@H]3C[C@@](C)(N5CCCCC5)C3)C(=O)C4(C)C)nc(Nc3cc(C(=O)NCC(F)F)c(F)c(F)c3F)c21` [Example 274, N-(2,2-difluoroethyl)-5-((6-(3,3-dimethyl-1-((1s,3s)-3-methyl-3-(piperidin-1-yl)cyclobutyl)-2-oxo-2,3-dihydro-1H-pyrrolo[3,2-b]pyridin-6-yl)-3-isopropyl-3H-imidazo[4,5-c]pyridin-4-yl)amino)-2,3,4-trifluorobenzamide], 0.04 nM.
With `CC(C)n1cnc2cc(-c3ccc4c(c3)N([C@H]3C[C@@](C)(N5CCCCC5)C3)C(=O)C43CC3)nc(Nc3cc(C(=O)NCC(F)F)c(Cl)c(F)c3F)c21` [Example 275, 2-chloro-N-(2,2-difluoroethyl)-3,4-difluoro-5-((3-isopropyl-6-(1′-((1s,3s)-3-methyl-3-(piperidin-1-yl)cyclobutyl)-2′-oxospiro[cyclopropane-1,3′-indolin]-6′-yl)-3H-imidazo[4,5-c]pyridin-4-yl)amino)benzamide] the figure was 0.06 nM; with `CCNC(=O)c1cc(Nc2nc(-c3ccc4c(c3)N([C@H]3C[C@@](C)(N5CCCCC5)C3)C(=O)C4(C)C)cc3ncn(C(C)C)c23)c(F)cc1C` [Example 276, 5-((6-(3,3-dimethyl-1-((1s,3s)-3-methyl-3-(piperidin-1-yl)cyclobutyl)-2-oxoindolin-6-yl)-3-isopropyl-3H-imidazo[4,5-c]pyridin-4-yl)amino)-N-ethyl-4-fluoro-2-methylbenzamide], 0.06 nM; with `Cc1c(C(=O)NCC(F)F)cc(Nc2nc(-c3cc4c(nc3F)C(C)(C)C(=O)N4[C@H]3C[C@@](C)(N4CCCC5(CC5)C4)C3)cc3ncn(C(C)C)c23)c(F)c1F` [Example 277, N-(2,2-difluoroethyl)-3,4-difluoro-5-((6-(5-fluoro-3,3-dimethyl-1-((1s,3s)-3-methyl-3-(5-azaspiro[2.5]octan-5-yl)cyclobutyl)-2-oxo-2,3-dihydro-1H-pyrrolo[3,2-b]pyridin-6-yl)-3-isopropyl-3H-imidazo[4,5-c]pyridin-4-yl)amino)-2-methylbenzamide], 0.07 nM.
Under `CCNC(=O)c1cc(Nc2nc(-c3cnc4c(c3)N([C@H]3C[C@@](C)(N5CCCCC5)C3)C(=O)C4(C)C)cc3ncn(C(C)C)c23)c(F)c(F)c1F` [Example 278, 5-((6-(3,3-dimethyl-1-((1s,3s)-3-methyl-3-(piperidin-1-yl)cyclobutyl)-2-oxo-2,3-dihydro-1H-pyrrolo[3,2-b]pyridin-6-yl)-3-isopropyl-3H-imidazo[4,5-c]pyridin-4-yl)amino)-N-ethyl-2,3,4-trifluorobenzamide] stands 0.2 nM; under `CCNC(=O)c1cc(Nc2nc(-c3cc4c(nc3F)C(C)(C)C(=O)N4[C@H]3C[C@@](C)(N4CCCC5(CC5)C4)C3)cc3ncn(C(C)C)c23)c(F)c(F)c1C` [Example 279, N-ethyl-3,4-difluoro-5-((6-(5-fluoro-3,3-dimethyl-1-((1s,3s)-3-methyl-3-(5-azaspiro[2.5]octan-5-yl)cyclobutyl)-2-oxo-2,3-dihydro-1H-pyrrolo[3,2-b]pyridin-6-yl)-3-isopropyl-3H-imidazo[4,5-c]pyridin-4-yl)amino)-2-methylbenzamide], 0.1 nM; under `CNC(=O)c1cc(Nc2nc(-c3cnc4c(c3)N([C@H]3C[C@@](C)(N5CCCCC5)C3)C(=O)C4(C)C)cc3ncn(C(C)C)c23)c(F)c(F)c1Cl` [Example 281, 2-chloro-5-((6-(3,3-dimethyl-1-((1s,3s)-3-methyl-3-(piperidin-1-yl)cyclobutyl)-2-oxo-2,3-dihydro-1H-pyrrolo[3,2-b]pyridin-6-yl)-3-isopropyl-3H-imidazo[4,5-c]pyridin-4-yl)amino)-3,4-difluoro-N-methylbenzamide], 0.07 nM.
`CC(C)n1cnc2cc(-c3cnc4c(c3)N([C@H]3C[C@@](C)(N5CCCC6(CC6)C5)C3)C(=O)C4(C)C)nc(Nc3cc(C(=O)NCC(F)F)c(Cl)c(F)c3F)c21` [Example 282, 2-chloro-N-(2,2-difluoroethyl)-5-((6-(3,3-dimethyl-1-((1s,3s)-3-methyl-3-(5-azaspiro[2.5]octan-5-yl)cyclobutyl)-2-oxo-2,3-dihydro-1H-pyrrolo[3,2-b]pyridin-6-yl)-3-isopropyl-3H-imidazo[4,5-c]pyridin-4-yl)amino)-3,4-difluorobenzamide] gave an IC50 of 0.1 nM.
Under `CCNC(=O)c1cc(Nc2nc(-c3cnc4c(c3)N([C@H]3C[C@@](C)(N5CCCC6(CC6)C5)C3)C(=O)C4(C)C)cc3ncn(C(C)C)c23)c(F)c(F)c1Cl` [Example 283, 2-chloro-5-((6-(3,3-dimethyl-1-((1s,3s)-3-methyl-3-(5-azaspiro[2.5]octan-5-yl)cyclobutyl)-2-oxo-2,3-dihydro-1H-pyrrolo[3,2-b]pyridin-6-yl)-3-isopropyl-3H-imidazo[4,5-c]pyridin-4-yl)amino)-N-ethyl-3,4-difluorobenzamide] stands 0.09 nM; under `Cc1c(C(=O)NCC(F)F)cc(Nc2nc(-c3cnc4c(c3)N([C@H]3C[C@@](C)(N5CCCC6(CC6)C5)C3)C(=O)C4(C)C)cc3ncn(C(C)C)c23)c(F)c1F` [Example 284, N-(2,2-difluoroethyl)-5-((6-(3,3-dimethyl-1-((1s,3s)-3-methyl-3-(5-azaspiro[2.5]octan-5-yl)cyclobutyl)-2-oxo-2,3-dihydro-1H-pyrrolo[3,2-b]pyridin-6-yl)-3-isopropyl-3H-imidazo[4,5-c]pyridin-4-yl)amino)-3,4-difluoro-2-methylbenzamide], 0.1 nM; under `CCNC(=O)c1cc(Nc2nc(-c3cnc4c(c3)N([C@H]3C[C@@](C)(N5CCCC6(CC6)C5)C3)C(=O)C4(C)C)cc3ncn(C(C)C)c23)c(F)c(F)c1C` [Example 285, 5-((6-(3,3-dimethyl-1-((1s,3s)-3-methyl-3-(5-azaspiro[2.5]octan-5-yl)cyclobutyl)-2-oxo-2,3-dihydro-1H-pyrrolo[3,2-b]pyridin-6-yl)-3-isopropyl-3H-imidazo[4,5-c]pyridin-4-yl)amino)-N-ethyl-3,4-difluoro-2-methylbenzamide], 0.1 nM.

Source of the values: US11203591B2, “Substituted 6-azabenzimidazole compounds” (Gilead Sciences, Inc., priority 2018, dated 2021).
